This series can be described thus: Permeability of compounds in Caco-2 assay (bi-directional transport). The series is classed as in vitro ADME. The note with it: human, pH 7.4; for Papp A→B at 2 h, 2 μM / Papp B→A at 2 h, 2 μM: Caco-2 monolayer, pH 7.40; for Papp A→B at 2 h, 2 μM: A to B; for Papp B→A at 2 h, 2 μM: B to A. The procedure: Caco-2 cells purchased from ATCC were seeded onto […] (PET) in 96-well Corning Insert plates at 1×10^5 cells/cm2, and refreshed medium every 4˜5 days until to the 21st to 28th day for confluent cell monolayer formation. The transport buffer in the study was HBSS with 10.0 mM HEPES at pH 7.40±0.05. Test compound was tested at 2.00 μM bi-directionally in duplicate. Digoxin was tested at 10.0 μM bi-directionally in duplicate, while nadolol and metoprolol were tested at 2.00 μM in A to B direction in duplicate. Final DMSO concentration was adjusted to less than 1%. The plate was incubated for 2 hours in CO2 incubator at 37±1° C., with 5% CO2 at saturated humidity without shaking. […] For nadolol and metoprolol, 200 μL supernatant solution was diluted with 600 μL ultra-pure water for LC-MS/MS analysis. For digoxin and test compounds, 200 μL supernatant solution was diluted with 200 μL ultra-pure water for LC-MS/MS analysis Concentrations of test and control compounds in starting solution, donor solution, and receiver solution were quantified by LC-MS/MS methodologies, using peak area ratio of analyte/internal standard. After transport assay, lucifer yellow rejection assay was applied to determine the Caco-2 cell monolayer integrity. The apparent permeability coefficient Papp (cm/s) was calculated using the equation: Papp=(dCr/dt)×Vr/(A×C0) Where dCr/dt is the cumulative concentration of compound in the receiver chamber as a function of time (μM/s); Vr is the solution volume in the receiver chamber (0.075 mL on the apical side, 0.25 mL on the basolateral side); A is the surface area for the transport, i.e. 0.0804 cm2 for the area of the monolayer, CO is the initial concentration in the donor chamber (μM).
In general terms: Caco-2 monolayers are a common model of the intestinal barrier.

By Papp is commonly meant the rate of passage across a membrane or cell layer, normalised by area and donor concentration. By Papp A→B is commonly meant how fast a substance crosses the layer from the apical side. A high value points to fast passage. The Papp B→A is how fast a substance crosses the layer from the basolateral side. The efflux ratio is a quotient of directional permeabilities that is used to spot active efflux. The compound `CC(C)C(=O)OC[C@H]1O[C@@H](n2ccc(NO)nc2=O)[C@@H]2OC(=O)O[C@@H]21` [Compound 1, ((3aR,4R,6R,6aR)-6-((Z)-4-(hydroxyimino)-2-oxo-3,4-dihydropyrimidin-1(2H)-yl)-2-oxotetrahydrofuro[3,4-d][1,3]dioxol-4-yl)methyl isobutyrate] gave a Papp A→B at 2 h, 2 μM of 0.565 ×10⁻⁶ cm/s and a Papp B→A at 2 h, 2 μM of 2.04 ×10⁻⁶ cm/s. For the same compound, under “Caco-2, binning criteria Low/Moderate/High, read-out: Papp (permeability bin)”, the Papp at 2 h, 2 μM is 2 to 20 ×10⁻⁶ cm/s. For the same compound, under “Papp(BA)/Papp(AB), Caco-2”, the efflux ratio at 2 h, 2 μM came out at 3.61.
For `CC(C)C(=O)OC[C@H]1O[C@@H](n2ccc(NO)nc2=O)[C@H](O)[C@@H]1O` [molnupiravir, reference compound], the apical-to-basolateral permeability (Papp A→B) at 2 h, 2 μM was less than 0.293 ×10⁻⁶ cm/s and the Papp B→A at 2 h, 2 μM is 0.527 ×10⁻⁶ cm/s.

For the origin of these results see US11865132B2, “Nucleoside derivatives and methods of use thereof” (Ascletis BioScience Co., Ltd., priority 2021, dated 2024).
